Laboratory results published in publication PMC11879692, “PDE4 inhibitor rolipram represses hedgehog signaling via ubiquitin-mediated proteolysis of GLI transcription factors to regress breast cancer” (The Journal of Biological Chemistry, 2025).

How the values were obtained:
MDA-MB-231 cells [1] = assay: Annexin V-FITC and PI double staining; format: cell-based, human; conditions: MDA-MB-231, IC50 dose, 24 h
Description: (§1) To analyze if the cells have undergone necrosis or apoptosis because of 24 h of rolipram treatment, cells were double stained with Annexin V-FITC and PI using BD Pharmingen Annexin V:FITC Apoptosis Detection Kit (BD Biosciences; catalog no.: BD556547) using the manufacturer’s protocol. The data obtained from BD LSRFortessa flow cytometer (RRID: SCR_019600) were analyzed using BD FACSDiva 9.0 software ([31], [32]) (RRID: SCR_001456).

MCF-7 cells [2] = assay: Annexin V-FITC and PI double staining; format: cell-based, human; conditions: MCF-7, IC50 dose, 24 h
Description: as §1

[3] = tested on: GLI2 and GLI3 in MDA-MB-231 cells; assay: Ubiquitination of GLI2 and GLI3 (HA-Ub transfection, immunoprecipitation, anti-HA blot); format: cell-based, human
Description: (§2) HA-Ubiquitin plasmid (Addgene; catalog no.: plasmid #18712, RRID: Addgene_18712) was transfected into MCF-7 and MDA-MB-231 cells using X-tremeGENE HP DNA Transfection Reagent (Roche; catalog no.: XTGHP-RO). Proteins were extracted from the untreated control cells and cells treated with rolipram for 24 h and were immunoprecipitated using antibodies raised against GLI2 and GLI3. The immunoprecipitation involved overnight incubation of protein and antibodies in Pierce Protein A/G Agarose (Thermo Scientific; catalog no.: 20421) at 4°C. Following immunoprecipitation, the precipitate was subjected to Western blot analysis using anti-HA antibodies (Cell Signaling Technology; catalog no.: 2367; RRID: AB_10691311) to observe ubiquitination of the desired proteins. Cells were cotreated with MG-132 (Sigma–Aldrich; catalog no.: M7449), a proteosomal blocker for ascertaining ubiquitination ([35]).

[4] = tested on: GLI2 and GLI3 in MCF-7 cells; assay: as above; format: cell-based, human
Description: as §2

[5] = tested on: 4T1 mice breast carcinoma cells, mammary fat pad tumor; assay: Histological study of mammary tissue and lung of tumor-bearing mice; format: in vivo, BALB/c mice; conditions: for number of cells per unit area (480 px × 400 px) of lung histological sections: tumor-induced 213 ± 20, control 143 ± 19, mean ± SD
Description: Solid tumors were developed in BALB/c mice (n = 3) except the control group (group I) by injecting 1 × 10^4 viable 4T1 (RRID: CVCL_0125) mice breast carcinoma cells (resuspended in 50 μl of PBS) into the inguinal fourth mammary fat pad, and the tumor was allowed to develop for 14 days ([37], [38]). Mice were randomly divided into three groups, viz., untreated tumor (group II), mice treated intraperitoneally with 1 mg//kg bodyweight of rolipram (group III), and mice receiving 5 mg/kg bodyweight of rolipram, intraperitoneally (group IV) ([39], [40]). After 14 days, the mice were sacrificed. Lung, kidney, liver, serum, and the tumors were collected for further experiments ([15]).
Tissue samples of mammary tissue, lung, kidney, and liver from each group of mice were fixed in Bouin’s solution (Sigma–Aldrich; catalog no.: HT10132), dehydrated in graded alcohol, and embedded in paraffin wax. Thin sections (5 μm) of tissues were mounted on glass slides and stained with hematoxylin (Sigma–Aldrich; catalog no.: H3136), following rehydration with graded alcohol. The samples were again dehydrated with graded alcohol and stained with eosin and mounted with Dystyrene Plasticizer Xylene ([42]). The images were obtained in an Olympus CKX53 Inverted Microscope (RRID: SCR_025025) at 10X magnifications with MagVision Software (Magnus). The QuPath (RRID: SCR_018257) software ([43]) was used to detect the cells and determine the area of individual cells and their corresponding nuclei in each image. The tab-delimited text file obtained from QuPath software was utilized by NumPy ([44]) (RRID: SCR_008633) to determine the nucleus-to-cytoplasm ratio of individual cells, and the frequency (cell count) of the nucleus-to-cytoplasm ratio was plotted by MatPlotLib (RRID: SCR_008624), a Python (RRID: SCR_008394) 2D plotting library. For quantifying the number of cells in a unit area of histological section of lung, each section image was divided into 12 equal parts (dimensions: 480 px × 400 px). The number of cells in each part was obtained from QuPath (RRID: SCR_018257) software, and the values were represented as mean ± SD.

MDA-MB-231 cells [6] = assay: Flow cytometric analysis of DNA content (PI); format: cell-based, human; conditions: MDA-MB-231, IC50 dose, 24 h, vs control
Description: (§3) After treating the cells with rolipram for 24 h, cells were stained with PI (BD Pharmingen PI/RNase Staining Buffer; BD Biosciences; catalog no.: BD550825), following fixing of cells with 70% ethanol for 1 h at 4°C and permeabilization with 0.1% Triton X-100 (Sigma–Aldrich; catalog no.: X100). The cells were then analyzed using BD LSRFortessa flow cytometer (RRID: SCR_019600), and the data were analyzed using BD FACSDiva 9.0 software ([30]) (RRID: SCR_001456).

MCF-7 cells [7] = assay: Flow cytometric analysis of DNA content (PI); format: cell-based, human; conditions: MCF-7, IC50 dose, 24 h, vs control
Description: as §3

## COc1ccc(C2CNC(=O)C2)cc1OC1CCCC1 (stereo not drawn) [rolipram, Rolipram]
MDA-MB-231 cells [1]
  increase in the dead cell population: 5.2%
MCF-7 cells [2]
  increase in the dead cell population: 8.1%
[3]; MDA-MB-231, IC50 dose
  ubiquitination of GLI2 and GLI3: ubiquitination of both proteins was also observed
[3]; MDA-MB-231, in the presence of H89
  ubiquitination of GLI2 and GLI3: not able to induce ubiquitination
[4]; MCF-7, IC50 dose, 6 h to 24 h
  ubiquitination of GLI2 and GLI3: significant ubiquitination
[4]; MCF-7, in the presence of H89
  ubiquitination of GLI2 and GLI3: not able to induce ubiquitination
[5]; 1 mg/kg bodyweight
  number of cells per unit area (480 px × 400 px) of lung histological sections: 154 ± 11
[5]; 5 mg/kg bodyweight
  number of cells per unit area (480 px × 400 px) of lung histological sections: 119 ± 10
[5]; rolipram-treated tumor-bearing mice
  metastatic cellular infiltration in the lung tissues: significantly reduce
[5]; rolipram-treated tumor-bearing mice, p < 0.001
  multinucleated cells in the mammary fat pad and glandular region: reduced
MDA-MB-231 cells [6]
  G0/G1 cell population: significantly increased
MCF-7 cells [7]
  G0/G1 cell population: significantly increased
